Experimental data: US20050214285A1, “Epitopes or mimotopes derived from the C-epsilon-3 or C-epsilon-4 domains of IgE, antagonists thereof, and their therapeutic uses” (SmithKline Beecham Biologicals, s.a. and Peptide …, priority 1999, published 2005)
Like-named read-outs stand apart in the source and are kept apart here. Positions of bridges follow the written chain, without caps; N, C: chain ends. Residues, ends and D or L forms follow the SMILES beside them.

How the values were obtained:
PTmAb0011 [1] = experiment: BIAcore affinity to PTmAb0011; type: binding, mouse; conditions: read-out: PTmAb BIAcore KD^Rel (μM) PTmAb0011
Source text: (§1) This involved a DNA sub-cloning transfer from the major coat protein (gVIIIp) filamentous phage display vector to a lower copy number minor phage coat protein (gIIIp) display vector with a random PCR step. […] Included in the tables are ranking orders and also BIAcore affinities where available.
(§2) Thus indicating the importance of correct presentation of the peptides of the present invention to adopt a shape which closely resembles the native target in the context of the whole IgE molecule. [drawing]

PTmAb0011 [2] = experiment: Phage display ranking of peptide ligands for PTmAb0011; type: binding, mouse; conditions: primary phage display biopannings (Table 7)
Source text: (§3) Phage display libraries were used to map the binding sites of the monoclonal antibodies using three different phage libraries, displaying either the XCX15, XCX10 or XAX10 peptide sequence (where X is any amino acid) at the N-terminus of the phage gVIIIp. Tables 6 and 7 show the results of selecting for peptide ligands with the anti human IgE monoclonal antibodies […]. […]
as §1

PTmAb0005 [3] = experiment: BIAcore affinity to PTmAb0005; type: binding
Source text: as §1, §2

PTmAb0005 [4] = experiment: Phage display ranking of peptide ligands for PTmAb0005; type: binding; conditions: for Rank (ECL) PTmAb0005: primary phage display biopannings (Table 6)
Procedure: as §3
This was performed by introducing random mutations by PCR mutagenesis and sub-cloning into the Fuse 5 vector for minor filamentous phage protein gIIIp display. These, and other results, confirmed the importance of the amino acids within IgEC67 which aligned with the Cε2 epitope. […] Mutations in other sites had little effect on the affinity to PTmAb0005.
as §1

[5] = read-out: PTmAb BIAcore KD^Rel (μM) PTmAb0005

Q: `CC[C@H](C)[C@H](NC(=O)[C@@H]1CSSC[C@H](NC(=O)[C@@H](N)CCCNC(=N)N)C(=O)N[C@@H](CCC(=O)O)C(=O)N[C@@H](CCC(=O)O)C(=O)N[C@@H](Cc2c[nH]c3ccccc23)C(=O)N[C@@H](CC(C)C)C(=O)N1)C(=O)N1CCC[C@H]1C(=O)N1CCC[C@H]1C(=O)N[C@@H](C)C(=O)N1CCC[C@H]1C(=O)N[C@@H](C)C(=O)N[C@@H](Cc1ccccc1)C(=O)N[C@@H](C)C(=O)N1CCC[C@H]1C(=O)N1CCC[C@H]1C(=O)O` [EEC21/19] (H-RCEEWLCIPPAPAFAPP-OH; disulfide 2-7) was tested. Which Kd (PTmAb0011 [1]) did it give?
A: Its Kd is 27.8 µM.

Q: What about the “Rank (ECL) PTmAb0011” value (PTmAb0011 [2]) of the same compound?
A: Its value is 3.

Q: What about the Kd (PTmAb0005 [3]; [5]) of the same compound?
A: Its Kd is 14.9 µM.

Q: How did the Kd (PTmAb0011 [1]) turn out when `CSCC[C@H](NC(=O)[C@H](CCC(N)=O)NC(=O)CNC(=O)[C@H](Cc1ccc(O)cc1)NC(=O)[C@@H](NC(=O)[C@H](CC(C)C)NC(=O)[C@H](CS)NC(=O)[C@@H](N)CCC(=O)O)C(C)C)C(=O)N[C@@H](C)C(=O)N[C@@H](CC(=O)O)C(=O)N[C@@H](CS)C(=O)N[C@@H](C)C(=O)N[C@@H](C)C(=O)NCC(=O)NCC(=O)N[C@@H](Cc1c[nH]c2ccccc12)C(=O)N1CCC[C@H]1C(=O)O` [IgEC13] (H-ECLVYGQMADCAAGGWP-OH) was run?
A: The Kd was > 1000 µM.

Q: And the “Rank (ECL) PTmAb0005” value (PTmAb0005 [4])?
A: Its value is 5.

Q: And the Kd (PTmAb0005 [3]; [5])?
A: The Kd was > 1000 µM.

Q: `CSCC[C@H](NC(=O)[C@H](CCC(N)=O)NC(=O)[C@H](CC(C)C)NC(=O)CNC(=O)[C@H](CCC(=O)O)NC(=O)[C@H](CC(C)C)NC(=O)[C@@H](NC(=O)[C@H](C)NC(=O)[C@H](CC(N)=O)NC(=O)[C@H](CS)NC(=O)[C@@H](N)CCC(N)=O)C(C)C)C(=O)N[C@H](C(=O)N[C@@H](CC(=O)O)C(=O)N[C@@H](Cc1c[nH]cn1)C(=O)N[C@@H](CS)C(=O)N[C@@H](Cc1c[nH]c2ccccc12)C(=O)N[C@@H](CC(N)=O)C(=O)O)C(C)C` [IgEC26] (H-QCNAVLEGLQMVDHCWN-OH) was tested. Which Kd (PTmAb0011 [1]) did it give?
A: The Kd was 53.4 µM.

Q: What about the “Rank (ECL) PTmAb0005” value (PTmAb0005 [4]) of the same compound?
A: The value was 43.

Q: And the Kd (PTmAb0005 [3]; [5])?
A: Its Kd is 3 µM.

Q: With `CSCC[C@H](NC(=O)[C@H](CCC(=O)O)NC(=O)[C@H](CO)NC(=O)[C@H](CO)NC(=O)[C@@H]1CCCN1C(=O)[C@@H](NC(=O)[C@H](CCSC)NC(=O)[C@H](CCC(N)=O)NC(=O)[C@@H](NC(=O)[C@H](CCC(=O)O)NC(=O)[C@@H]1CCCN1C(=O)[C@H](CC(=O)O)NC(=O)[C@H](C)NC(=O)[C@@H](NC(=O)[C@H](CS)NC(=O)[C@@H](N)CS)C(C)C)[C@@H](C)O)[C@@H](C)O)C(=O)N[C@@H](Cc1ccccc1)C(=O)O` [IgEC29] (H-CCVADPETQMTPSSEMF-OH) as the compound, how does the Kd (PTmAb0011 [1]) read?
A: The Kd was > 600 µM.

Q: What about the “Rank (ECL) PTmAb0005” value (PTmAb0005 [4]) of the same compound?
A: The value was 40.

Q: And the Kd (PTmAb0005 [3]; [5])?
A: Its Kd is > 600 µM.

Q: For `CC[C@H](C)[C@H](NC(=O)[C@H](CCCCN)NC(=O)[C@H](CC(C)C)NC(=O)[C@H](CS)NC(=O)[C@@H](N)CCC(=O)O)C(=O)N[C@@H](CCC(=O)O)C(=O)N[C@@H](CCC(N)=O)C(=O)N[C@@H](CCC(N)=O)C(=O)N[C@@H](CS)C(=O)N[C@@H](C)C(=O)N[C@@H](CC(=O)O)C(=O)N[C@H](C(=O)N[C@H](C(=O)N[C@@H](CCC(=O)O)C(=O)N[C@H](C(=O)N1CCC[C@H]1C(=O)N[C@@H](CCCNC(=N)N)C(=O)O)[C@@H](C)CC)C(C)C)[C@@H](C)CC` [IgEC42] (H-ECLKIEQQCADIVEIPR-OH), which Kd (PTmAb0011 [1]) is on record?
A: Its Kd is > 500 µM.

Q: What about the “Rank (ECL) PTmAb0005” value (PTmAb0005 [4]) of the same compound?
A: Its value is 15.

Q: What about the Kd (PTmAb0005 [3]; [5]) of the same compound?
A: The Kd was 19.4 µM.

Q: `CSCC[C@H](NC(=O)[C@@H](NC(=O)[C@H](Cc1ccccc1)NC(=O)[C@H](CCC(N)=O)NC(=O)[C@H](CCCNC(=N)N)NC(=O)[C@H](CS)NC(=O)[C@@H](N)CCC(N)=O)C(C)C)C(=O)N[C@@H](CC(N)=O)C(=O)N[C@@H](CCC(N)=O)C(=O)N[C@@H](CO)C(=O)N[C@@H](CCC(=O)O)C(=O)N[C@@H](CCCCN)C(=O)N[C@@H](CCC(=O)O)C(=O)N[C@@H](Cc1ccccc1)C(=O)NCC(=O)N[C@@H](CCC(N)=O)C(=O)N[C@@H](CS)C(=O)O` [IgEC56] (H-QCRQFVMNQSEKEFGQC-OH) was tested. Which Kd (PTmAb0011 [1]) did it give?
A: Its Kd is > 1000 µM.

Q: What about the “Rank (ECL) PTmAb0005” value (PTmAb0005 [4]) of the same compound?
A: Its value is 0.

Q: And the Kd (PTmAb0005 [3]; [5])?
A: Its Kd is 60 µM.

Q: Which results are given for `CC[C@H](C)[C@H](NC(=O)[C@@H]1CCCN1C(=O)[C@H](CC(C)C)NC(=O)CNC(=O)[C@H](CCCNC(=N)N)NC(=O)[C@H](CC(N)=O)NC(=O)[C@@H]1CCCN1C(=O)[C@H](CC(=O)O)NC(=O)[C@H](C)NC(=O)[C@@H]1CCCN1C(=O)[C@H](CO)NC(=O)[C@H](CC(=O)O)NC(=O)[C@H](CO)NC(=O)[C@H](CCSC)NC(=O)[C@H](CS)NC(=O)[C@@H](N)CS)C(=O)N[C@@H](Cc1c[nH]c2ccccc12)C(=O)O` [IgEC66] (H-CCMSDSPADPNRGLPIW-OH)?
A: Kd (PTmAb0011 [1]): > 600 µM; Rank (ECL) PTmAb0005 (PTmAb0005 [4]): 0; Kd (PTmAb0005 [3]; [5]): > 600 µM

Q: Which results are given for `CSCC[C@@H]1NC(=O)[C@H](Cc2ccccc2)NC(=O)[C@@H](N)CSSC[C@@H](C(=O)N2CCC[C@H]2C(=O)N[C@@H](CCCNC(=N)N)C(=O)N[C@@H](CCC(=O)O)C(=O)O)NC(=O)[C@H](CC(C)C)NC(=O)[C@H](CCC(=O)O)NC(=O)[C@H](CC(C)C)NC(=O)[C@H](CC(=O)O)NC(=O)[C@H](C)NC(=O)[C@H](CC(C)C)NC(=O)[C@H](CCC(N)=O)NC(=O)[C@H](CCCCN)NC(=O)[C@H](CC(N)=O)NC1=O` [IgEC67] (H-CFMNKQLADLELCPRE-OH; disulfide 1-13)?
A: Kd (PTmAb0011 [1]): 4.8 µM; binding / affinity to PTmAb0005 (PTmAb0005 [4]; IgEC67 and its mutants, gIIIp display): highest affinity; Rank (ECL) PTmAb0005 (PTmAb0005 [4]): 243; Kd (PTmAb0005 [3]; [5]): 0.1 µM

Q: Which results are given for `CC(C)[C@H](NC(=O)[C@H](CC(=O)O)NC(=O)[C@H](CO)NC(=O)[C@@H]1CSSC[C@H](NC(=O)[C@@H](N)CO)C(=O)N[C@@H](C)C(=O)N[C@@H](Cc2ccc(O)cc2)C(=O)N[C@@H]([C@@H](C)O)C(=O)N[C@@H](C)C(=O)N[C@@H](CCC(N)=O)C(=O)N[C@@H](CCCNC(=N)N)C(=O)N[C@@H](CCC(N)=O)C(=O)N1)C(=O)N1CCC[C@H]1C(=O)N[C@@H](CC(N)=O)C(=O)N1CCC[C@H]1C(=O)NCC(=O)O` [IgEC69] (H-SCAYTAQRQCSDVPNPG-OH; disulfide 2-10)?
A: Kd (PTmAb0011 [1]): 6.4 µM; Rank (ECL) PTmAb0005 (PTmAb0005 [4]): 11; Kd (PTmAb0005 [3]; [5]): 6.6 µM

Q: `CC[C@H](C)[C@H](NC(=O)CNC(=O)[C@@H]1CCCN1C(=O)[C@H](CCC(N)=O)NC(=O)[C@H](Cc1c[nH]cn1)NC(=O)[C@@H]1CCCN1C(=O)[C@@H](NC(=O)[C@H](CC(=O)O)NC(=O)[C@H](CO)NC(=O)[C@H](CCC(N)=O)NC(=O)[C@H](CS)NC(=O)[C@@H](N)CS)C(C)C)C(=O)N[C@@H](CC(N)=O)C(=O)N[C@@H](CC(=O)O)C(=O)N[C@@H](CC(C)C)C(=O)N[C@@H](Cc1c[nH]cn1)C(=O)N[C@H](C(=O)O)C(C)C` [IgEC73] (H-CCQSDVPHQPGINDLHV-OH) was tested. Which Kd (PTmAb0011 [1]) did it give?
A: Its Kd is > 600 µM.

Q: And the “Rank (ECL) PTmAb0005” value (PTmAb0005 [4])?
A: Its value is 0.

Q: And the Kd (PTmAb0005 [3]; [5])?
A: The Kd was > 600 µM.

Q: For `CSCC[C@H](NC(=O)[C@H](CC(N)=O)NC(=O)[C@@H](NC(=O)[C@@H](NC(=O)[C@H](CCC(N)=O)NC(=O)[C@@H](NC(=O)[C@H](CC(=O)O)NC(=O)[C@@H](NC(=O)[C@@H](NC(=O)[C@H](CS)NC(=O)[C@@H](N)CS)C(C)C)[C@@H](C)O)C(C)C)[C@@H](C)O)[C@@H](C)O)C(=O)N[C@@H](CC(=O)O)C(=O)N[C@H](C(=O)N1CCC[C@H]1C(=O)N[C@@H](C)C(=O)NCC(=O)N[C@@H](CCC(N)=O)C(=O)O)C(C)C` [IgEC81] (H-CCVTDVQTTNMDVPAGQ-OH), which Kd (PTmAb0011 [1]) is on record?
A: Its Kd is 6.3 µM.

Q: And the “Rank (ECL) PTmAb0005” value (PTmAb0005 [4])?
A: Its value is 0.

Q: And the Kd (PTmAb0005 [3]; [5])?
A: Its Kd is 78 µM.

Q: How did the Kd (PTmAb0005 [3]; BIAcore, read-out: apparent affinity to PTmAb0005) turn out when `CSCC[C@@H]1NC(=O)[C@H](C(C)C)NC(=O)[C@H](CCC(N)=O)NC(=O)CNC(=O)[C@H](CC(=O)O)NC(=O)[C@H](CCC(=O)O)NC(=O)[C@H](CC(C)C)NC(=O)[C@@H](NC(C)=O)CSSC[C@@H](C(=O)N2CCC[C@H]2C(=O)N[C@@H](CCCNC(=N)N)C(=O)N[C@@H](CCC(=O)O)C(=O)N[C@@H](C)C(=O)N[C@@H](C)C(=O)N[C@@H](CCC(=O)O)C(=O)NCC(=O)N[C@@H](CC(=O)O)C(=O)N[C@@H](CCCCNC(C)=O)C(N)=O)NC(=O)[C@H](CC(C)C)NC(=O)[C@H](CC(=O)O)NC(=O)[C@H](C(C)C)NC(=O)[C@H](CC(=O)O)NC1=O` [PT1079] (Ac-CLEDGQVMDVDLCPREAAEGDK(Ac)-NH2; disulfide 1-13) was run?
A: Its Kd is 0.02 µM.
